We go through six compounds from ChEMBL document CHEMBL5724914, “Linking interpersonal differences in gut microbiota composition and drug biotransformation activity” (2024).

Data set [1] in a line: The drug is tested on Z-030 corresponding to mouse gut metagenome with ENA study accession number: PRJEB37062 and ENA sample accession number: ERS12561829 for biotransformation under anaerobic condition. The drug concentrations were measured over 9 timepoints collected between 0 and 24 hours of incubation by liquid-chromatography-coupled mass spectrometry (LC–MS). The following applies: 2 µM.

Data set [2] is described as follows: The drug is tested on Z-028 corresponding to mouse gut metagenome with ENA study accession number: PRJEB37062 and ENA sample accession number: ERS12561827 for biotransformation under anaerobic condition. The drug concentrations were measured over 9 timepoints collected between 0 and 24 hours of incubation by liquid-chromatography-coupled mass spectrometry (LC–MS). The note with it: 2 µM.

Data set [3] in a line: The drug is tested on Z-026 corresponding to metagenome with ENA study accession number: PRJEB37062 and ENA sample accession number: ERS12561825 for biotransformation under anaerobic condition. The drug concentrations were measured over 9 timepoints collected between 0 and 24 hours of incubation by liquid-chromatography-coupled mass spectrometry (LC–MS). The note with it: 2 µM.

Data set [4] can be described thus: The drug is tested on Z-017 corresponding to mouse gut metagenome with ENA study accession number: PRJEB37062 and ENA sample accession number: ERS12561816 for biotransformation under anaerobic condition. The drug concentrations were measured over 9 timepoints collected between 0 and 24 hours of incubation by liquid-chromatography-coupled mass spectrometry (LC–MS). The note with it: 2 µM.

Data set [5] can be described thus: The drug is tested on Z-009 corresponding to pig gut metagenome with ENA study accession number: PRJEB37062 and ENA sample accession number: ERS12561809 for biotransformation under anaerobic condition. The drug concentrations were measured over 9 timepoints collected between 0 and 24 hours of incubation by liquid-chromatography-coupled mass spectrometry (LC–MS). The note with it: 2 µM.

Data set [6] in a line: The drug is tested on Z-007 corresponding to rat gut metagenome with ENA study accession number: PRJEB37062 and ENA sample accession number: ERS12561807 for biotransformation under anaerobic condition. The drug concentrations were measured over 9 timepoints collected between 0 and 24 hours of incubation by liquid-chromatography-coupled mass spectrometry (LC–MS). The following applies: 2 µM.

The nature of data set [7]: The drug is tested on Z-005 corresponding to metagenome with ENA study accession number: PRJEB37062 and ENA sample accession number: ERS12561805 for biotransformation under anaerobic condition. The drug concentrations were measured over 9 timepoints collected between 0 and 24 hours of incubation by liquid-chromatography-coupled mass spectrometry (LC–MS). The note with it: 2 µM.

Data set [8] can be described thus: The drug is tested on Z-004 corresponding to metagenome with ENA study accession number: PRJEB37062 and ENA sample accession number: ERS12561804 for biotransformation under anaerobic condition. The drug concentrations were measured over 9 timepoints collected between 0 and 24 hours of incubation by liquid-chromatography-coupled mass spectrometry (LC–MS). The following applies: 2 µM.

The nature of data set [9]: The drug is tested on WLS-240 corresponding to human gut metagenome with ENA study accession number: PRJEB37062 and ENA sample accession number: ERS12561773 for biotransformation under anaerobic condition. The drug concentrations were measured over 9 timepoints collected between 0 and 24 hours of incubation by liquid-chromatography-coupled mass spectrometry (LC–MS). The note with it: 2 µM.

The nature of data set [10]: The drug is tested on WLS-039 corresponding to human gut metagenome with ENA study accession number: PRJEB37062 and ENA sample accession number: ERS12561746 for biotransformation under anaerobic condition. The drug concentrations were measured over 9 timepoints collected between 0 and 24 hours of incubation by liquid-chromatography-coupled mass spectrometry (LC–MS). The note with it: 2 µM.

The nature of data set [11]: The drug is tested on WLS-006 corresponding to human gut metagenome with ENA study accession number: PRJEB37062 and ENA sample accession number: ERS12561741 for biotransformation under anaerobic condition. The drug concentrations were measured over 9 timepoints collected between 0 and 24 hours of incubation by liquid-chromatography-coupled mass spectrometry (LC–MS). The following applies: 2 µM.

For data set [12] the following is noted: human gut metagenome, 24 h, 2 µM.
For data set [13] the following is noted: human gut metagenome, 24 h, 2 µM. This is another data set of the same source.
For data set [14] the following is noted: human gut metagenome, 24 h, 2 µM. The source holds these as a separate data set.
The conditions of data set [15]: human gut metagenome, 24 h, 2 µM. The source holds these as a separate data set.
The conditions of data set [16]: human gut metagenome, 24 h, 2 µM. The source holds these as a separate data set.
The conditions of data set [17]: human gut metagenome, 24 h, 2 µM. This is another data set of the same source.
The conditions of data set [18]: human gut metagenome, 24 h, 2 µM. This is another data set of the same source.
The conditions of data set [19]: human gut metagenome, 24 h, 2 µM. The source holds these as a separate data set.
For data set [20] the following is noted: human gut metagenome, 24 h, 2 µM. This is another data set of the same source.
Note: call rule not given here.

In the case of `CC(NC(C)(C)C)C(=O)c1cccc(Cl)c1` (stereo not given) [BUPROPION], the “Bacterial Biotransformation” value in [1], in data set [2], in [3], in [4], in data set [5] and in [6] was “Compound NOT metabolized” in each case. Also, the “Bacterial Biotransformation” value in [7] was “Compound NOT metabolized”; in data set [8], “Compound NOT metabolized”; in data set [9], “Compound NOT metabolized”; in [10] it was “Compound NOT metabolized”; in [11] it was “Compound metabolized”; in data set [12] it was “Compound NOT metabolized”. The “Bacterial Biotransformation” value in data set [13] was “Compound NOT metabolized”; in data set [14], “Compound NOT metabolized”; in [15], “Compound NOT metabolized”; in [16], “Compound NOT metabolized”; in data set [17], “Compound metabolized”; in data set [18], “Compound NOT metabolized”. For the same compound, the “Bacterial Biotransformation” value in data set [19] is given as “Compound NOT metabolized”; in data set [20], “Compound metabolized”.
In the case of `CC(C)(C)NC[C@H](O)COc1nsnc1N1CCOCC1.O=C(O)/C=C\C(=O)O` [TIMOLOL MALEATE], the “Bacterial Biotransformation” value in data set [1], in [2], in data set [3], in data set [4], in data set [5] and in [6] was “Compound NOT metabolized” throughout. For the same compound, the “Bacterial Biotransformation” value in [7], in data set [8], in [9], in data set [10], in [11] and in [12] was “Compound NOT metabolized” in each case. For the same compound, the “Bacterial Biotransformation” value in [13], in data set [14], in data set [15], in data set [16], in data set [17] and in data set [18] was “Compound NOT metabolized” throughout. Further, the “Bacterial Biotransformation” value in data set [19] and in data set [20] was “Compound NOT metabolized” in each case.
Consider `CCOc1ccc2nc(S(N)(=O)=O)sc2c1` [ETHOXZOLAMIDE], for which the “Bacterial Biotransformation” value in data set [1], in [2], in data set [3], in data set [4], in [5] and in data set [6] was “Compound NOT metabolized” in each case. The “Bacterial Biotransformation” value in [7], in data set [8], in data set [9], in data set [10], in [11] and in data set [12] was “Compound NOT metabolized” in each case. For the same compound, the “Bacterial Biotransformation” value in [13], in [14], in data set [15], in [16], in data set [17] and in data set [18] was “Compound NOT metabolized” each time. The entries for the “Bacterial Biotransformation” value in [19] and in [20] were “Compound metabolized” and “Compound NOT metabolized”, respectively.
For `CCOc1ccccc1OCCN[C@H](C)Cc1ccc(OC)c(S(N)(=O)=O)c1.Cl` [TAMSULOSIN HYDROCHLORIDE], the “Bacterial Biotransformation” value in [1], in data set [2], in [3], in [4], in [5] and in data set [6] was “Compound NOT metabolized” each time. The “Bacterial Biotransformation” value in data set [7] is “Compound NOT metabolized”; in data set [8], “Compound NOT metabolized”; in data set [9] it was “Compound NOT metabolized”; in data set [10] it was “Compound NOT metabolized”; in data set [11], “Compound metabolized”; in data set [12] it was “Compound NOT metabolized”. Moreover, the “Bacterial Biotransformation” value in data set [13], in [14], in data set [15], in data set [16], in data set [17] and in data set [18] was “Compound NOT metabolized” throughout. Also, the “Bacterial Biotransformation” value in data set [19] and in data set [20] was “Compound metabolized” in each case.
With `CCOC(=O)C1=C[C@]2(CC)CCCN3CCc4c(n1c1ccccc41)[C@@H]32` [VINPOCETINE], the “Bacterial Biotransformation” value in [1] was “Compound NOT metabolized”; in data set [2], “Compound NOT metabolized”; in [3] it was “Compound NOT metabolized”; in data set [4], “Compound NOT metabolized”; in data set [5] it was “Compound metabolized”; in data set [6], “Compound NOT metabolized”. Besides, the “Bacterial Biotransformation” value in data set [7] was “Compound NOT metabolized”; in [8] it was “Compound NOT metabolized”; in data set [9], “Compound metabolized”; in data set [10], “Compound NOT metabolized”; in data set [11], “Compound metabolized”; in data set [12] it was “Compound metabolized”. In addition, the “Bacterial Biotransformation” value was “Compound metabolized” in data set [13]; “Compound metabolized” in data set [14]; “Compound NOT metabolized” in data set [15]; “Compound metabolized” in [16]; “Compound NOT metabolized” in data set [17]; “Compound NOT metabolized” in [18]. Moreover, the results for the “Bacterial Biotransformation” value in data set [19] and in data set [20] were “Compound metabolized” and “Compound NOT metabolized”, respectively.
Regarding `O=P1(N(CCCl)CCCl)NCCCO1` (stereo not given) [CYCLOPHOSPHAMIDE ANHYDROUS], the “Bacterial Biotransformation” value is “Compound NOT metabolized” in data set [1]; “Compound NOT metabolized” in data set [2]; “Compound NOT metabolized” in data set [3]; “Compound NOT metabolized” in data set [4]; “Compound metabolized” in data set [5]; “Compound NOT metabolized” in data set [6]. The “Bacterial Biotransformation” value is given as “Compound NOT metabolized” in data set [7]; “Compound metabolized” in [8]; “Compound metabolized” in data set [9]; “Compound NOT metabolized” in [10]; “Compound NOT metabolized” in data set [11]; “Compound NOT metabolized” in [12]. Besides, the “Bacterial Biotransformation” value is reported as “Compound metabolized” in data set [13]; “Compound metabolized” in data set [14]; “Compound NOT metabolized” in [15]; “Compound NOT metabolized” in [16]; “Compound NOT metabolized” in [17]; “Compound NOT metabolized” in data set [18]. In addition, the “Bacterial Biotransformation” value in data set [19] and in data set [20] was “Compound metabolized” throughout.
